Test results: PubChem BioAssay AID1259407 (Chemical Carcinogenesis Research Information System (CCRIS), 2018)
Activity calls are given as the source filed them. The rule behind the calls is not given here.

Test system: CCRIS mutagenicity, Ames/micronucleus/aberration tests
Assay: CCRIS mutagenicity studies
[1] = Test System: AMES SALMONELLA TYPHIMURIUM, Strain/Indicator: TA98, Metabolic Activation: NONE, Method: PREINCUBATION
[2] = Test System: AMES SALMONELLA TYPHIMURIUM, Strain/Indicator: TA100, Metabolic Activation: NONE, Method: PREINCUBATION
[3] = Test System: AMES SALMONELLA TYPHIMURIUM, Strain/Indicator: TA98, Metabolic Activation: NONE, Method: STANDARD PLATE
[4] = Test System: AMES SALMONELLA TYPHIMURIUM, Strain/Indicator: TA98, Metabolic Activation: RAT, LIVER, S-9, AROCLOR 1254, Method: STANDARD PLATE
[5] = Test System: AMES SALMONELLA TYPHIMURIUM, Strain/Indicator: TA100, Metabolic Activation: NONE, Method: STANDARD PLATE
[6] = Test System: AMES SALMONELLA TYPHIMURIUM, Strain/Indicator: TA100, Metabolic Activation: RAT, LIVER, S-9, AROCLOR 1254, Method: STANDARD PLATE
[7] = Test System: AMES SALMONELLA TYPHIMURIUM, Strain/Indicator: TA1535, Metabolic Activation: NONE, Method: STANDARD PLATE
[8] = Test System: AMES SALMONELLA TYPHIMURIUM, Strain/Indicator: TA1537, Metabolic Activation: NONE, Method: STANDARD PLATE

Measured: mutagenic call

CCCCCCCCCCCCCCCCCCN
inactive: Test System: AMES SALMONELLA TYPHIMURIUM, Strain/Indicator: TA97, Metabolic Activation: HAMSTER, LIVER, S-9, AROCLOR 1254 (10 OR 30%), Method: PREINCUBATION inactive; negative | Test System: AMES SALMONELLA TYPHIMURIUM, Strain/Indicator: TA97, Metabolic Activation: NONE, Method: PREINCUBATION inactive; negative | Test System: AMES SALMONELLA TYPHIMURIUM, Strain/Indicator: TA97, Metabolic Activation: RAT, LIVER, S-9, AROCLOR 1254 (10 OR 30%), Method: PREINCUBATION inactive; negative | Test System: AMES SALMONELLA TYPHIMURIUM, Strain/Indicator: TA98, Metabolic Activation: HAMSTER, LIVER, S-9, AROCLOR 1254 (10 OR 30%), Method: PREINCUBATION inactive; negative | [1] inactive; negative | Test System: AMES SALMONELLA TYPHIMURIUM, Strain/Indicator: TA98, Metabolic Activation: RAT LIVER S-9, PHENOBARBITAL AND BETA-NAPHTHOFLAVONE, Method: PREINCUBATION inactive; negative | Test System: AMES SALMONELLA TYPHIMURIUM, Strain/Indicator: TA98, Metabolic Activation: RAT, LIVER, S-9, AROCLOR 1254 (10 OR 30%), Method: PREINCUBATION inactive; negative | Test System: AMES SALMONELLA TYPHIMURIUM, Strain/Indicator: TA100, Metabolic Activation: HAMSTER, LIVER, S-9, AROCLOR 1254 (10 OR 30%), Method: PREINCUBATION inactive; negative | [2] inactive; negative | Test System: AMES SALMONELLA TYPHIMURIUM, Strain/Indicator: TA100, Metabolic Activation: RAT LIVER S-9, PHENOBARBITAL AND BETA-NAPHTHOFLAVONE, Method: PREINCUBATION inactive; negative | Test System: AMES SALMONELLA TYPHIMURIUM, Strain/Indicator: TA100, Metabolic Activation: RAT, LIVER, S-9, AROCLOR 1254 (10 OR 30%), Method: PREINCUBATION inactive; negative | Test System: AMES SALMONELLA TYPHIMURIUM, Strain/Indicator: TA1535, Metabolic Activation: HAMSTER, LIVER, S-9, AROCLOR 1254 (10 OR 30%), Method: PREINCUBATION inactive; negative | Test System: AMES SALMONELLA TYPHIMURIUM, Strain/Indicator: TA1535, Metabolic Activation: NONE, Method: PREINCUBATION inactive; negative | Test System: AMES SALMONELLA TYPHIMURIUM, Strain/Indicator: TA1535, Metabolic Activation: RAT LIVER S-9, PHENOBARBITAL AND BETA-NAPHTHOFLAVONE, Method: PREINCUBATION inactive; negative | Test System: AMES SALMONELLA TYPHIMURIUM, Strain/Indicator: TA1535, Metabolic Activation: RAT, LIVER, S-9, AROCLOR 1254 (10 OR 30%), Method: PREINCUBATION inactive; negative | Test System: AMES SALMONELLA TYPHIMURIUM, Strain/Indicator: TA1537, Metabolic Activation: NONE, Method: PREINCUBATION inactive; negative | Test System: AMES SALMONELLA TYPHIMURIUM, Strain/Indicator: TA1537, Metabolic Activation: RAT LIVER S-9, PHENOBARBITAL AND BETA-NAPHTHOFLAVONE, Method: PREINCUBATION inactive; negative | Test System: E.COLI, Strain/Indicator: WP2UVRA/PKM101, Metabolic Activation: NONE, Method: PREINCUBATION inactive; negative | Test System: E.COLI, Strain/Indicator: WP2UVRA/PKM101, Metabolic Activation: RAT LIVER S-9, PHENOBARBITAL AND BETA-NAPHTHOFLAVONE, Method: PREINCUBATION inactive; negative

O=c1c(O)c(C2=CC(O)(CCO)C(O)(CCO)C=C2)oc2c1C(O)=CC(O)(CCO)C2 (configuration not stated)
inactive: [3] inactive; negative | [4] inactive; negative | [5] inactive; negative | [6] inactive; negative | [7] inactive; negative | Test System: AMES SALMONELLA TYPHIMURIUM, Strain/Indicator: TA1535, Metabolic Activation: RAT, LIVER, S-9, AROCLOR 1254, Method: STANDARD PLATE inactive; negative | [8] inactive; negative | Test System: AMES SALMONELLA TYPHIMURIUM, Strain/Indicator: TA1537, Metabolic Activation: RAT, LIVER, S-9, AROCLOR 1254, Method: STANDARD PLATE inactive; negative | Test System: AMES SALMONELLA TYPHIMURIUM, Strain/Indicator: TA1538, Metabolic Activation: NONE, Method: STANDARD PLATE inactive; negative | Test System: AMES SALMONELLA TYPHIMURIUM, Strain/Indicator: TA1538, Metabolic Activation: RAT, LIVER, S-9, AROCLOR 1254, Method: STANDARD PLATE inactive; negative

O=c1c2ccccc2[se]n1-c1ccccc1
inactive: [3] inactive; negative | Test System: AMES SALMONELLA TYPHIMURIUM, Strain/Indicator: TA98, Metabolic Activation: RAT LIVER S-9, PHENOBARBITAL AND 5,6-BENZOFLAVONE, Method: STANDARD PLATE inactive; negative | [5] inactive; negative | Test System: AMES SALMONELLA TYPHIMURIUM, Strain/Indicator: TA100, Metabolic Activation: RAT LIVER S-9, PHENOBARBITAL AND 5,6-BENZOFLAVONE, Method: STANDARD PLATE inactive; negative | [7] inactive; negative | Test System: AMES SALMONELLA TYPHIMURIUM, Strain/Indicator: TA1535, Metabolic Activation: RAT LIVER S-9, PHENOBARBITAL AND 5,6-BENZOFLAVONE, Method: STANDARD PLATE inactive; negative | [8] inactive; negative | Test System: AMES SALMONELLA TYPHIMURIUM, Strain/Indicator: TA1537, Metabolic Activation: RAT LIVER S-9, PHENOBARBITAL AND 5,6-BENZOFLAVONE, Method: STANDARD PLATE inactive; negative | Test System: E.COLI, Strain/Indicator: WP2 UVRA, Metabolic Activation: NONE, Method: STANDARD PLATE inactive; negative | Test System: E.COLI, Strain/Indicator: WP2 UVRA, Metabolic Activation: RAT LIVER S-9, PHENOBARBITAL AND 5,6-BENZOFLAVONE, Method: STANDARD PLATE inactive; negative

Oc1ccc(N=Nc2ccccn2)c(O)c1
inactive: End Point: Mouse lymphoma, Test System: L5178Y (TK+/TK-)/trifluorothymidine, Metabolic Activation: None, Method: Suspension/plate inactive; negative | End Point: Mouse lymphoma, Test System: L5178Y (TK+/TK-)/trifluorothymidine, Metabolic Activation: Rat, Liver, S-9, Method: Suspension/plate inactive; negative | Test System: Ames Salmonella typhimurium, Strain/Indicator: TA98, Metabolic Activation: None inactive; negative | Test System: Ames Salmonella typhimurium, Strain/Indicator: TA98, Metabolic Activation: Rat, Liver, S-9 inactive; negative | Test System: Ames Salmonella typhimurium, Strain/Indicator: TA100, Metabolic Activation: None inactive; negative | Test System: Ames Salmonella typhimurium, Strain/Indicator: TA100, Metabolic Activation: Rat, Liver, S-9 inactive; negative | Test System: Ames Salmonella typhimurium, Strain/Indicator: TA1535, Metabolic Activation: None inactive; negative | Test System: Ames Salmonella typhimurium, Strain/Indicator: TA1535, Metabolic Activation: Rat, Liver, S-9 inactive; negative | Test System: Ames Salmonella typhimurium, Strain/Indicator: TA1537, Metabolic Activation: None inactive; negative | Test System: Ames Salmonella typhimurium, Strain/Indicator: TA1537, Metabolic Activation: Rat, Liver, S-9 inactive; negative

CC(=O)Nc1ccc(S(N)(=O)=O)cc1
inactive: [1] inactive; negative | Test System: AMES SALMONELLA TYPHIMURIUM, Strain/Indicator: TA98, Metabolic Activation: RAT, LIVER, S-9, AROCLOR 1254, Method: PREINCUBATION inactive; negative | [2] inactive; negative | Test System: AMES SALMONELLA TYPHIMURIUM, Strain/Indicator: TA100, Metabolic Activation: RAT, LIVER, S-9, AROCLOR 1254, Method: PREINCUBATION inactive; negative

O=C(/C=C/c1ccccc1)c1ccc(Br)cc1
inactive: [3] inactive; negative | [4] inactive; negative | [5] inactive; negative | [6] inactive; negative
